In PubChem BioAssay AID248 (DTP/NCI, 2004):
Values joined by “and” are separate entries in the source; they are usually repeats but may differ in a detail not shown here. Equal values may be shown once. Toxic doses and inconclusive results are not listed. No stated cut-off is given here; in the data, active means T/C of 150% or more; inactive means T/C below 125%.

Tested on: L1210 leukemia ip in BDF1 mice, survival T/C
Assay: NCI In Vivo Anticancer Drug Screen. Data for tumor model L1210 Leukemia (intraperitoneal) in B6D2F1 (BDF1) mice
Settings: endpoint: mean survival time, higher = longer survival
Procedure, shortened: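 Value reflects the ratio of survival in compound-treated mice to survival in vehicle-treated controls, with both groups carrying the same transplanted tumor.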

[1] = dose: 50.0 mg/kg/injection, schedule: Q01DX001 (ip), vehicle: carboxymethylcellulose (CMC)
[2] = dose: 50.0 mg/kg/injection, schedule: Q01DX009 (ip), vehicle: carboxymethylcellulose (CMC)
[3] = dose: 100.0 mg/kg/injection, schedule: Q01DX001 (ip), vehicle: carboxymethylcellulose (CMC)
[4] = dose: 200.0 mg/kg/injection, schedule: Q01DX001 (ip), vehicle: carboxymethylcellulose (CMC)
[5] = dose: 100.0 mg/kg/injection, schedule: Q01DX009 (ip), vehicle: Klucel (hydroxypropylcellulose) (HPC)
[6] = dose: 100.0 mg/kg/injection, schedule: Q04DX003 (ip), vehicle: Klucel (hydroxypropylcellulose) (HPC)
[7] = dose: 200.0 mg/kg/injection, schedule: Q01DX009 (ip), vehicle: Klucel (hydroxypropylcellulose) (HPC)
[8] = dose: 200.0 mg/kg/injection, schedule: Q04DX003 (ip), vehicle: Klucel (hydroxypropylcellulose) (HPC)
[9] = dose: 400.0 mg/kg/injection, schedule: Q01DX009 (ip), vehicle: Klucel (hydroxypropylcellulose) (HPC)
[10] = dose: 400.0 mg/kg/injection, schedule: Q04DX003 (ip), vehicle: Klucel (hydroxypropylcellulose) (HPC)
[11] = dose: 50.0 mg/kg/injection, schedule: Q04DX003 (ip), vehicle: saline with Tween-80
[12] = dose: 100.0 mg/kg/injection, schedule: Q04DX003 (ip), vehicle: saline with Tween-80
[13] = dose: 200.0 mg/kg/injection, schedule: Q04DX003 (ip), vehicle: saline with Tween-80
[14] = dose: 50.0 mg/kg/injection, schedule: Q01DX001 (ip), vehicle: saline
[15] = dose: 100.0 mg/kg/injection, schedule: Q01DX001 (ip), vehicle: saline
[16] = dose: 200.0 mg/kg/injection, schedule: Q01DX001 (ip), vehicle: saline
[17] = dose: 50.0 mg/kg/injection, schedule: Q01DX009 (ip), vehicle: saline
[18] = dose: 100.0 mg/kg/injection, schedule: Q01DX009 (ip), vehicle: saline
[19] = dose: 200.0 mg/kg/injection, schedule: Q01DX009 (ip), vehicle: saline

Measured: T/C

COc1ccc(OC(=O)Nc2ccc(F)cc2)cc1
inactive: [1] 97 % of control | [2] 93 % of control and 90 % of control | dose: 50.0 mg/kg/injection, schedule: Q04DX002 (ip), vehicle: carboxymethylcellulose (CMC) 95 % of control and 106 % of control | dose: 50.0 mg/kg/injection, schedule: Q04DX003 (ip), vehicle: carboxymethylcellulose (CMC) 101 % of control | [3] 89 % of control | dose: 100.0 mg/kg/injection, schedule: Q01DX009 (ip), vehicle: carboxymethylcellulose (CMC) 93 % of control and 103 % of control | dose: 100.0 mg/kg/injection, schedule: Q04DX002 (ip), vehicle: carboxymethylcellulose (CMC) 101 % of control and 110 % of control | dose: 100.0 mg/kg/injection, schedule: Q04DX003 (ip), vehicle: carboxymethylcellulose (CMC) 101 % of control | [4] 89 % of control | dose: 200.0 mg/kg/injection, schedule: Q01DX009 (ip), vehicle: carboxymethylcellulose (CMC) 101 % of control and 104 % of control | dose: 200.0 mg/kg/injection, schedule: Q04DX002 (ip), vehicle: carboxymethylcellulose (CMC) 96 % of control and 106 % of control | dose: 200.0 mg/kg/injection, schedule: Q04DX003 (ip), vehicle: carboxymethylcellulose (CMC) 101 % of control

CNC(=S)NN=C(c1ccccc1)c1ccccc1
inactive: dose: 100.0 mg/kg/injection, schedule: Q01DX001 (ip), vehicle: Klucel (hydroxypropylcellulose) (HPC) 95 % of control | [5] 91 % of control | [6] 93 % of control | dose: 200.0 mg/kg/injection, schedule: Q01DX001 (ip), vehicle: Klucel (hydroxypropylcellulose) (HPC) 90 % of control | [7] 89 % of control | [8] 87 % of control | dose: 400.0 mg/kg/injection, schedule: Q01DX001 (ip), vehicle: Klucel (hydroxypropylcellulose) (HPC) 87 % of control | [9] 93 % of control | [10] 96 % of control

O=C1CSc2ccccc2N1
inactive: dose: 12.5 mg/kg/injection, schedule: Q01DX009 (ip), vehicle: saline with Tween-80 94 % of control | dose: 25.0 mg/kg/injection, schedule: Q01DX009 (ip), vehicle: saline with Tween-80 100 % of control | dose: 50.0 mg/kg/injection, schedule: Q01DX009 (ip), vehicle: saline with Tween-80 102 % of control | [11] 103 % of control | dose: 100.0 mg/kg/injection, schedule: Q04DX002 (ip), vehicle: Klucel (hydroxypropylcellulose) (HPC) 97 % of control | [12] 103 % of control | dose: 200.0 mg/kg/injection, schedule: Q04DX002 (ip), vehicle: Klucel (hydroxypropylcellulose) (HPC) 95 % of control | [13] 92 % of control | dose: 400.0 mg/kg/injection, schedule: Q04DX002 (ip), vehicle: Klucel (hydroxypropylcellulose) (HPC) 110 % of control

C=CCC1(C(=C)C)C(=O)NC(=S)NC1=O
inactive: dose: 75.0 mg/kg/injection, schedule: Q01DX001 (ip), vehicle: carboxymethylcellulose (CMC) 95 % of control | dose: 75.0 mg/kg/injection, schedule: Q01DX001 (ip), vehicle: saline 91 % of control | dose: 150.0 mg/kg/injection, schedule: Q01DX001 (ip), vehicle: carboxymethylcellulose (CMC) 105 % of control | dose: 150.0 mg/kg/injection, schedule: Q01DX001 (ip), vehicle: saline 102 % of control

N#CC(c1ccccc1)C(O)(c1ccccc1)c1ccccc1 (configuration not stated)
inactive: [14] 98 % of control | [15] 98 % of control | [16] 93 % of control | dose: 400.0 mg/kg/injection, schedule: Q01DX001 (ip), vehicle: saline 91 % of control

O=c1[nH]cnc2nc(/N=N/SCCO)[nH]c12
inactive: dose: 44.4 mg/kg/injection, schedule: Q01DX Z (ip), vehicle: methylcellulose (MC) 101 % of control | dose: 66.6 mg/kg/injection, schedule: Q01DX Z (ip), vehicle: methylcellulose (MC) 108 % of control | dose: 100.0 mg/kg/injection, schedule: Q01DX Z (ip), vehicle: methylcellulose (MC) 116 % of control | dose: 150.0 mg/kg/injection, schedule: Q01DX Z (ip), vehicle: methylcellulose (MC) 121 % of control

O=Cc1ccc2cccnc2c1O
inactive: [14] 114 % of control | [15] 108 % of control | [16] 93 % of control

O=C(O)CCC(C(=O)O)N1C(=O)C2C3CCC(C3)C2C1=O (configuration not stated)
inactive: dose: 25.0 mg/kg/injection, schedule: Q04DX003 (ip), vehicle: saline with Tween-80 93 % of control | [11] 96 % of control | [12] 93 % of control and 98 % of control | [13] 95 % of control | dose: 400.0 mg/kg/injection, schedule: Q04DX003 (ip), vehicle: saline with Tween-80 98 % of control

CCCCN(C)N=Nc1ccc(CCC(=O)NN)cc1
inactive: dose: 33.0 mg/kg/injection, schedule: Q01DX009 (ip), vehicle: carboxymethylcellulose (CMC) 107 % of control | [2] 101 % of control

COc1cc2c(cc1OC)C1c3cc(OC)c(OC)cc3CC(=O)N1CC2 (configuration not stated)
inactive: [17] 87 % of control | [18] 104 % of control | dose: 100.0 mg/kg/injection, schedule: Q04DX003 (ip), vehicle: saline 100 % of control | [19] 102 % of control | dose: 200.0 mg/kg/injection, schedule: Q04DX003 (ip), vehicle: saline 96 % of control | dose: 400.0 mg/kg/injection, schedule: Q01DX009 (ip), vehicle: saline 98 % of control | dose: 400.0 mg/kg/injection, schedule: Q04DX003 (ip), vehicle: saline 95 % of control

CC(O)CN(CCN(CC(C)O)CC(C)O)CCN(CC(C)O)CC(C)O.O=S(=O)([O-])[O-].[Cu+2] (configuration not stated)
inactive: dose: 5.0 mg/kg/injection, schedule: Q01DX001 (ip), vehicle: saline 102 % of control | dose: 10.0 mg/kg/injection, schedule: Q01DX001 (ip), vehicle: saline 91 % of control

O=C(CCCc1ccc(N(CCCl)CCCl)cc1)Nc1ncccn1
inactive: dose: 1.0 mg/kg/injection, schedule: Q01DX015 (ip), vehicle: carboxymethylcellulose (CMC) 113 % of control | dose: 3.0 mg/kg/injection, schedule: Q01DX015 (ip), vehicle: carboxymethylcellulose (CMC) 118 % of control | dose: 6.0 mg/kg/injection, schedule: Q01DX015 (ip), vehicle: carboxymethylcellulose (CMC) 118 % of control | dose: 6.25 mg/kg/injection, schedule: Q01DX001 (ip), vehicle: saline 110 % of control | dose: 12.0 mg/kg/injection, schedule: Q01DX015 (ip), vehicle: carboxymethylcellulose (CMC) 123 % of control | dose: 12.5 mg/kg/injection, schedule: Q01DX001 (ip), vehicle: saline 110 % of control | dose: 25.0 mg/kg/injection, schedule: Q01DX001 (ip), vehicle: saline 121 % of control

CCOC12c3ccccc3N(S(C)(=O)=O)C(C)C1C2(Br)Br (configuration not stated)
inactive: [5] 94 % of control | [6] 110 % of control | [7] 94 % of control | [8] 102 % of control | [9] 90 % of control | [10] 109 % of control

O=P(N1CC1)(N1CC1)N(CCCCN(Cc1ccccc1)P(=O)(N1CC1)N1CC1)Cc1ccccc1
inactive: dose: 10.0 mg/kg/injection, schedule: Q01DX001 (ip), vehicle: carboxymethylcellulose (CMC) 104 % of control | dose: 20.0 mg/kg/injection, schedule: Q01DX001 (ip), vehicle: carboxymethylcellulose (CMC) 101 % of control | dose: 40.0 mg/kg/injection, schedule: Q01DX001 (ip), vehicle: carboxymethylcellulose (CMC) 104 % of control | dose: 80.0 mg/kg/injection, schedule: Q01DX001 (ip), vehicle: carboxymethylcellulose (CMC) 106 % of control | [3] 92 % of control

CCOC(=O)/C=C1\NC(=O)N(CCCN2C(=O)N/C(=C\C(=O)OCC)C2=O)C1=O
inactive: dose: 100.0 mg/kg/injection, schedule: Q01DX009 (ip), vehicle: saline with Tween-80 97 % of control

COc1ccc(/C=C2/c3c(c(-c4ccccc4)c4ccccc4c3-c3ccccc3)S2(=O)=O)cc1
inactive: [1] 97 % of control | [3] 95 % of control | [4] 95 % of control | dose: 400.0 mg/kg/injection, schedule: Q01DX001 (ip), vehicle: carboxymethylcellulose (CMC) 86 % of control

CCOC(=O)C(=[N+]=[N-])C(F)(F)F
inactive: [17] 102 % of control | [18] 102 % of control | [19] 95 % of control
